Results published in BindingDB's records for doi:10.1074/jbc.M209367200 (University of Padova, 2003).
pKi: −log10 of the molar value.

Biological target: Casein kinase II subunit alpha (Zea mays, UniProt P28523)
Test: Kinase Inhibition Assay
Details: pH 7.5; 22 °C
Method: In vitro kinase assay using purified enzyme, was incubated at room temperature with substrate, and test compounds in the presence of 100 uM ATP/ [gamma-33P] ATP. 33P incorporation was measured with scintillation counter. IC50 values were calculated from dose-response curves; from these calculated apparent inhibition constants (Ki) were obtained using the Cheng-Prusoff equation: Ki = IC50/ (1 + ([ATP]/Km)).

Sequence of Casein kinase II subunit alpha (P28523 whole entry): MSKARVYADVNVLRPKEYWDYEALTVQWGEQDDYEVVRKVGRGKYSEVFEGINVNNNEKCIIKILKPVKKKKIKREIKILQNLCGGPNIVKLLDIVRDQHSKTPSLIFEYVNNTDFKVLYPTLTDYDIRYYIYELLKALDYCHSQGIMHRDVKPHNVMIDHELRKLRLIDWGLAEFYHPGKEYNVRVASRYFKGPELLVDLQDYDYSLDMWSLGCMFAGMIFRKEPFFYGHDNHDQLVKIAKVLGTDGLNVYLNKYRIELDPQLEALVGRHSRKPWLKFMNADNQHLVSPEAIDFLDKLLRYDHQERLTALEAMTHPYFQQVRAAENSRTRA

O=c1c2c(O)cccc2oc2cccc(O)c12 [1,8-dihydroxy-9H-xanthen-9-one]
pKi: < 4.40

O=C1c2cccc(O)c2C(=O)c2c(O)cccc21 [1,8-dihydroxy-anthraquinone]
pKi: < 4.40
